Here are results for ten compounds from ChEMBL document CHEMBL1201862, “PubChem BioAssay data set” (2004).

Some test systems named below: MDA-MB-231; NCI-H226; RXF 393; SF-539; OVCAR-5; EKVX; OVCAR-8; SF-295; HCT-15; SN12C; UO-31; U-251; NCI/ADR-RES; A549; SK-MEL-2; HT-29; HOP-92; SW-620; MDA-N.
Common to all, as to test: DTP human tumour cell line panel, 48 h

A word on the GI50: it is the concentration at which growth is held to half of that of the control.

Structures are written as SMILES.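 Step 1: Grow cells in 96-well plates. Step 2: Expose to compound for 48 hours at 5 concentrations. Step 3: Interpolate endpoints linearly; if unreached, use highest concentration. The concentration for 50% growth inhibition is given as GI50.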 Active and inactive are the calls of the source. Rule as the data show it: active = GI50 up to about 1.1 µM and inactive = higher. Some results are limits rather than exact numbers.

With `CN1C(=O)C(=CNc2ccccc2[N+](=O)[O-])C(=O)N(C)C1=O`, the GI50 in the assay with MDA-MB-231, with NCI-H226, in the assay on RXF 393, in the assay with SF-539, in the assay on OVCAR-5 and in the assay on EKVX was > 100 µM (inactive) each time. Besides, the GI50 was > 100 µM (inactive) in the assay on OVCAR-8; > 100 µM (inactive) with SF-295; above 100 µM in the assay on HCT-15; > 100 µM (inactive) with SN12C; > 100 µM (inactive) in the assay on UO-31; > 100 µM (inactive) in the assay on U-251. Also, the GI50 in the assay on NCI/ADR-RES, in the assay on A549, with SK-MEL-2, in the assay on HT-29, in the assay on HOP-92 and in the assay with SW-620 was > 100 µM (inactive) each time. In addition, the GI50 in the assay with MDA-N was > 100 µM (inactive).
With `C=C(C)CNCC(=C)C.Oc1c(Cl)c(Cl)c(Cl)c(Cl)c1Cl`, the GI50 was 15.5 µM (inactive) in the assay on MDA-MB-231; 13.9 µM (inactive) in the assay on NCI-H226; 20 µM (inactive) in the assay on RXF 393; 17.6 µM (inactive) with SF-539; 17.1 µM (inactive) in the assay on OVCAR-5; 17.9 µM (inactive) with EKVX. For the same compound, the GI50 in the assay with OVCAR-8 was 31.9 µM (inactive); with SF-295 it was 16.5 µM (inactive); in the assay on HCT-15 it was 20.9 µM; with SN12C, 20.2 µM (inactive); with UO-31, 15.7 µM (inactive); in the assay with U-251, 17.9 µM (inactive). Further, the GI50 in the assay on NCI/ADR-RES is 23.8 µM (inactive); in the assay with A549 it was 27.9 µM (inactive); in the assay with SK-MEL-2, 17.7 µM (inactive); with HT-29, 20.1 µM (inactive); with HOP-92, 24.4 µM (inactive); in the assay with SW-620 it was 31.1 µM (inactive). Moreover, the GI50 in the assay with MDA-N was 18.7 µM (inactive).
Consider `N=C(N)NS(=O)(=O)c1ccc(Nc2c3ccccc3nc3ccc(C(=O)Nc4ccc(S(N)(=O)=O)cc4)cc23)cc1`, for which the GI50 with MDA-MB-231, in the assay on NCI-H226, in the assay on RXF 393, in the assay with SF-539, in the assay with OVCAR-5 and with EKVX was > 100 µM (inactive) in each case. For the same compound, the GI50 in the assay on OVCAR-8 is > 100 µM (inactive); in the assay on SF-295, > 100 µM (inactive); in the assay with HCT-15, above 100 µM; in the assay on SN12C, > 100 µM (inactive); in the assay with UO-31 it was > 100 µM (inactive); in the assay with U-251, > 100 µM (inactive). Also, the GI50 in the assay on NCI/ADR-RES, in the assay on A549, in the assay with SK-MEL-2, with HT-29, with HOP-92 and in the assay with SW-620 was > 100 µM (inactive) in each case. Moreover, in the assay on MDA-N, the GI50 is > 100 µM (inactive).
For `CC1OC23CCCCC2C(C#N)(C#N)C1(C#N)C(=N)O3` (stereo not given), the GI50 was 15.7 µM (inactive) with MDA-MB-231; > 100 µM (inactive) in the assay on NCI-H226; 19.7 µM (inactive) in the assay with RXF 393; 21.8 µM (inactive) with SF-539; 22 µM (inactive) in the assay with OVCAR-5; 28.6 µM (inactive) in the assay on EKVX. Moreover, the GI50 was 20.7 µM (inactive) in the assay on OVCAR-8; 70 µM (inactive) in the assay with SF-295; 15.3 µM in the assay on HCT-15; 15.3 µM (inactive) with SN12C; > 10 µM (inactive) in the assay on UO-31; 22.8 µM (inactive) in the assay on U-251. Besides, the GI50 is 37.4 µM (inactive) in the assay on NCI/ADR-RES; 96.2 µM (inactive) in the assay on A549; 19.9 µM (inactive) with SK-MEL-2; 27.1 µM (inactive) in the assay with HT-29; 13.8 µM (inactive) in the assay on HOP-92; 8.75 µM (inactive) in the assay on SW-620. Moreover, the GI50 with MDA-N is 18.4 µM (inactive).
Turning to `C=CCCCCOC1C=CC(O)C(CO)O1` (stereo not given), the GI50 with MDA-MB-231, in the assay on NCI-H226, in the assay on RXF 393, in the assay with SF-539, in the assay on OVCAR-5 and in the assay with EKVX was > 100 µM (inactive) in each case. Besides, the GI50 in the assay on OVCAR-8 was > 100 µM (inactive); in the assay with SF-295, > 100 µM (inactive); with HCT-15, above 100 µM; in the assay with SN12C, > 100 µM (inactive); in the assay with UO-31, > 100 µM (inactive); in the assay with U-251, > 100 µM (inactive). Moreover, the GI50 in the assay with NCI/ADR-RES, in the assay on A549, in the assay with SK-MEL-2, in the assay on HT-29, in the assay on HOP-92 and in the assay with SW-620 was > 100 µM (inactive) in each case. The GI50 with MDA-N is > 100 µM (inactive).
For `COC(=O)NC(Nc1ccc(C)cc1)(C(F)(F)F)C(F)(F)F`, the GI50 with MDA-MB-231 was > 100 µM (inactive); with NCI-H226, > 100 µM (inactive); in the assay on RXF 393, 0.172 µM (active); with SF-539, > 100 µM (inactive); with OVCAR-5, > 100 µM (inactive); in the assay on EKVX, > 100 µM (inactive). In addition, the GI50 in the assay with OVCAR-8 is > 100 µM (inactive); in the assay with SF-295 it was > 100 µM (inactive); with HCT-15, above 100 µM; in the assay with SN12C it was > 100 µM (inactive); in the assay on UO-31, 18.3 µM (inactive); in the assay on U-251, > 100 µM (inactive). The GI50 in the assay with NCI/ADR-RES, in the assay on A549, in the assay with SK-MEL-2, with HT-29, in the assay with HOP-92 and with SW-620 was > 100 µM (inactive) in each case. The GI50 in the assay with MDA-N was > 100 µM (inactive).
On to `CC(C)(C)c1cc(C(O)(C(=O)O)C(=O)O)cc(C(C)(C)C)c1O`, for which the GI50 in the assay on MDA-MB-231, in the assay on NCI-H226, in the assay with RXF 393, in the assay with SF-539, in the assay with OVCAR-5 and in the assay with EKVX was > 100 µM (inactive) throughout. Further, the GI50 is > 100 µM (inactive) in the assay with OVCAR-8; > 100 µM (inactive) in the assay with SF-295; above 100 µM in the assay with HCT-15; > 100 µM (inactive) in the assay with SN12C; > 100 µM (inactive) in the assay with UO-31; > 100 µM (inactive) with U-251. The GI50 with NCI/ADR-RES, in the assay with A549, in the assay with SK-MEL-2, in the assay on HT-29, in the assay with HOP-92 and with SW-620 was > 100 µM (inactive) in each case. Also, the GI50 with MDA-N is > 100 µM (inactive).
Regarding `CC(C)=C[C@@H]1C[C@H](n2cc(C)c(=O)[nH]c2=O)ON1CCO`, the GI50 in the assay on MDA-MB-231, with NCI-H226, in the assay on RXF 393, in the assay with SF-539, in the assay with OVCAR-5 and in the assay on EKVX was > 100 µM (inactive) throughout. For the same compound, the GI50 with OVCAR-8 is > 100 µM (inactive); in the assay with SF-295, > 100 µM (inactive); in the assay on HCT-15, above 100 µM; in the assay with SN12C it was > 100 µM (inactive); in the assay on UO-31, > 100 µM (inactive); with U-251, > 100 µM (inactive). Further, the GI50 in the assay on NCI/ADR-RES, in the assay with A549, in the assay on SK-MEL-2, in the assay with HT-29, in the assay on HOP-92 and with SW-620 was > 100 µM (inactive) each time. For the same compound, the GI50 with MDA-N was > 100 µM (inactive).
Consider `COc1ccccc1C1Nn2c(nc3ccccc3c2=O)N1c1ccc(C)cc1` (stereo not given), for which the GI50 is 5.62 µM (inactive) with MDA-MB-231; 2.77 µM (inactive) in the assay with NCI-H226; 10 µM (inactive) in the assay with RXF 393; 3.51 µM (inactive) with SF-539; 10.4 µM (inactive) in the assay with OVCAR-5; 11.4 µM (inactive) in the assay on EKVX. The GI50 is 5.11 µM (inactive) in the assay with OVCAR-8; 4.94 µM (inactive) with SF-295; 3.49 µM in the assay with HCT-15; 5.87 µM (inactive) in the assay on SN12C; 6.73 µM (inactive) with UO-31; 2.04 µM (inactive) in the assay on U-251. For the same compound, the GI50 in the assay on NCI/ADR-RES was 9.06 µM (inactive); in the assay on A549, 6.19 µM (inactive); with SK-MEL-2, 11.4 µM (inactive); in the assay on HT-29, 7.78 µM (inactive); in the assay on HOP-92, 10.4 µM (inactive); in the assay with SW-620, 5.28 µM (inactive). The GI50 with MDA-N was 5.83 µM (inactive).
Take `CO[C@H]1C[C@H](O[C@H]2CC[C@]3(C=O)[C@H]4CC[C@]5(C)[C@@H](C6=CC(=O)OC6)CC[C@]5(O)[C@@H]4CC[C@]3(O)C2)O[C@H](C)[C@H]1O[C@@H]1O[C@H](CO)[C@@H](O)[C@H](O)[C@H]1O`: the GI50 in the assay with MDA-MB-231 is 0.000173 µM (active); in the assay on NCI-H226, 7.85e-05 µM (active); with RXF 393, 1.51e-05 µM (active); with SF-539, 2.03e-05 µM (active); in the assay on OVCAR-5, 3.52e-05 µM (active); in the assay on EKVX, 7e-06 µM (active). Moreover, the GI50 in the assay with OVCAR-8 was 3.34e-05 µM (active); in the assay with SF-295 it was 2.04e-05 µM (active); in the assay on HCT-15, 3.94e-05 µM; in the assay with SN12C, 1.05e-05 µM (active); in the assay on UO-31, 3.49e-05 µM (active); in the assay with U-251, 4.07e-05 µM (active). For the same compound, the GI50 with NCI/ADR-RES is 1.15e-05 µM (active); in the assay on A549, 4.46e-06 µM (active); with SK-MEL-2, 8.26e-05 µM (active); in the assay on HT-29, 3.03e-05 µM (active); in the assay with HOP-92 it was 5.83e-05 µM (active); with SW-620, 3.16e-05 µM (active). The 50% growth inhibitory concentration (GI50) with MDA-N is 3.94e-05 µM (active).
